Entries after “also recorded” stand apart in the source; their conditions may differ.
How the values were obtained:
[1] = Body weight of ovariectomized SHR; type: in vivo, rat; settings: daily sc injection for 4 weeks, 30 μg/kg/d (estradiol 2 μg/kg/d), FIG. 2
Source text: (§1) The effects of the ERβ-agonists on blood pressure (BP) in ovariectomized SHR, a widely accepted animal model of hypertensive heart disease, were investigated in three independent studies. Estradiol and the steroidal ERα agonist 3,17β-Dihydroxy-19-nor-17α-pregna-1,3,5(10)-triene-21,16α-lactone were used as references. Female spontaneously hypertensive rats (SHR-Nico; 12 weeks old; Charles River Laboratories) were used for the experiment. All animals were kept under standard conditions (eg 12 hr ON/OFF light cycle, commercial diet and water ad libitum). Animals were randomly assigned to different treatment groups as outlined below. All animals were marked individually by ear tag. Female rats (SHR; 12 weeks old) were ovarectomized (ovx) and treated for 4 weeks starting one day after ovx according to the protocol outlined below. All compounds were injected daily using ethanol (EtOH)/peanut oil 4+1 as the vehicle. [table] 12 weeks old female SHR (Charles River™) were ovariectomized or sham-operated. […] After 4 weeks treatment hemodynamic parameters were measured as described previously (Fraccarollo D, Hu K, Galuppo P, Gaudron P, Ertl G. (1997), Circulation. 1997;96:3963-3973) and animals were euthanized.

[2] = target: T1, rat prostate estrogen receptor (ERβ containing cytosol) (Rattus norvegicus, UniProt Q62986); assay: Estrogen receptor binding, competition with [3H]-estradiol, rat prostate cytosol (compared with rat uterus cytosol); settings: rat prostate cytosol (ERβ) vs rat uterus cytosol (ERα)
T1 construct: Receptor containing cytosol was prepared from rat prostate (ERβ containing cytosol); from tissue; host or cells: rat prostate cytosol
T1 sequence (Q62986 whole entry): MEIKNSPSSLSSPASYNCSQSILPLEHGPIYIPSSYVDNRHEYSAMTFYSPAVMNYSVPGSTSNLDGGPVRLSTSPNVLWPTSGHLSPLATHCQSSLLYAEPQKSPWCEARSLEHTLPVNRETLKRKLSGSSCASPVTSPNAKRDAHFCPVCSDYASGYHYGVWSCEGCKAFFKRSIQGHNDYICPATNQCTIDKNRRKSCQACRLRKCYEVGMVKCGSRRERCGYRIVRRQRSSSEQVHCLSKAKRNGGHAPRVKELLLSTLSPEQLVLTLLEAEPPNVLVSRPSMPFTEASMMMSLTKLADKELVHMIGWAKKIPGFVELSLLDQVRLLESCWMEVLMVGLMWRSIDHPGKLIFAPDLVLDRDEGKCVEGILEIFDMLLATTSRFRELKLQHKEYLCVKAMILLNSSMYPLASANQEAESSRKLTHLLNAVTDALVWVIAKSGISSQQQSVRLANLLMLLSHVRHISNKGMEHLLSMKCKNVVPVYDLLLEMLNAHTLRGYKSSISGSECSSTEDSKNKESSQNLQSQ
Protocol: The binding affinity of 8β-Vinyl-estra-1,3,5(10)-trien-3,17β-diol and 17β-Fluor-9α-vinyl-estra-1,3,5(10)-trien-3,16α-diol was determined by competition experiments using [3H]-estradiol as a ligand. Receptor containing cytosol was prepared from rat prostate (ERβ containing cytosol) and rat uterus (ERα containing cytosol).
The preparation of rat uterus cytosol and the binding study were performed as described (Stack, Gorski 1985, Endocrinology 117, 2024-2032) with some modifications as described by Fuhrmann et al. (Fuhrmann U. et al. 1995, Contraception 51: 45-52).
The preparation of rat prostate cytosol and the binding study was performed as described (Testas J. et al., 1981, Endocrinology 109: 1287-1289).

[3] = tested on: spontaneously hypertensive rats (SHR); assay: Cardiac hypertrophy (heart weight) in ovariectomized SHR; type: in vivo, rat; settings: ovx SHR, 4 weeks daily sc; 30 μg/kg/d (estradiol 2 μg/kg/d), compared to placebo treated rats; FIG. 6
Source text: as §1, with “[table]” for “[table] 12 weeks old female SHR (Charles River™) were ovariectomized or sham-operated.”, “euthanized. Cardiac hypertrophy in all animals was determined by measuring total heart weight and subsequent normalization to tibia length. Values are expressed as mean±SEM of parameters from different animals. […]” for “euthanized.”

human ERβ = target: T2, human ERβ (Homo sapiens, UniProt Q92731); assay: Binding to human estrogen receptors expressed by the Baculovirus/SF-9-expression system; settings: human receptors expressed by Baculovirus/SF-9-expression system
T2 construct: host or cells: Baculovirus/SF-9 expression system
T2 sequence (Q92731 whole entry): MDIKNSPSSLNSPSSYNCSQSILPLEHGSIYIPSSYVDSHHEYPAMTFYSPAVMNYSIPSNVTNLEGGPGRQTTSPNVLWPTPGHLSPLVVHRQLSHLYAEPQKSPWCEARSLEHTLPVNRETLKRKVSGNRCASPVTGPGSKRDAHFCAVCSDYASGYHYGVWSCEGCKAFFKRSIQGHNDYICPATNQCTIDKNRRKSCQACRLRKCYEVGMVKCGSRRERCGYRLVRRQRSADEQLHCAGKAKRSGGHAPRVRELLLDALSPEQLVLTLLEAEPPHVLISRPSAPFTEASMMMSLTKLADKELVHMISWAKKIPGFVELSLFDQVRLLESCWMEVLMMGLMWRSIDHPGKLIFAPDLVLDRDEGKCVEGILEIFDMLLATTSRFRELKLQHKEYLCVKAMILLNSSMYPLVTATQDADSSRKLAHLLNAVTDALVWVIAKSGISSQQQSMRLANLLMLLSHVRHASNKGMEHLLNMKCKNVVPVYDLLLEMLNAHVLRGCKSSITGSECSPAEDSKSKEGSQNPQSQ

[4] = tested on: spontaneously hypertensive rats (SHR); assay: In vivo hemodynamics in ovariectomized spontaneously hypertensive rats (SHR); design: species or system rat; settings: for cardiac output: FIG. 4; for blood pressure / effectiveness in lowering blood pressure relative to estradiol and the ERα agonist: ovx SHR, FIG. 3; for blood pressure: compared to vehicle treated (placebo) animals; for effectiveness in lowering blood pressure relative to estradiol and the ERα agonist: 30 μg/kg/d vs estradiol 2 μg/kg/d and ERα agonist 30 μg/kg/d
Source text: The effects of the ERβ-agonists on blood pressure (BP) in ovariectomized SHR, a widely accepted animal model of hypertensive heart disease, were investigated in three independent studies. Estradiol and the steroidal ERα agonist 3,17β-Dihydroxy-19-nor-17α-pregna-1,3,5(10)-triene-21,16α-lactone were used as references. Female spontaneously hypertensive rats (SHR-Nico; 12 weeks old; Charles River Laboratories) were used for the experiment. All animals were kept under standard conditions (eg 12 hr ON/OFF light cycle, commercial diet and water ad libitum). Animals were randomly assigned to different treatment groups as outlined below. All animals were marked individually by ear tag. Female rats (SHR; 12 weeks old) were ovarectomized (ovx) and treated for 4 weeks starting one day after ovx according to the protocol outlined below. All compounds were injected daily using ethanol (EtOH)/peanut oil 4+1 as the vehicle. [table] 12 weeks old female SHR (Charles River™) were ovariectomized or sham-operated. Starting one day after ovariectomy animals were randomly selected for a daily subcutaneous injection of 17β-estradiol (E2, 2 μg/kg body weight/d), the selective ERα agonist 3,17β-Dihydroxy-19-nor-17α-pregna-1,3,5(10)-triene-21,16α-lactone (WO 02/26763) (30 μg/kg body weight/d), the selective ERβ agonist 8β-Vinyl-estra-1,3,5(10)-trien-3,17β-diol (or 17β-Fluor-9α-vinyl-estra-1,3,5(10)-trien-3,16α-diol, respectively 30 μg/kg body weight) or placebo. All animals had free access to standard rat chow and water. E2, 3,17β-Dihydroxy-19-nor-17α-pregna-1,3,5(10)-triene-21,16α-lactone and 8β-Vinyl-estra-1,3,5(10)-trien-3,17β-diol (or 17β-Fluor-9α-vinyl-estra-1,3,5(10)-trien-3,16α-diol) were dissolved in ethanol and injected daily using peanut oil as a carrier substance, placebo animals received ethanol/peanut oil alone. After 4 weeks treatment hemodynamic parameters were measured as described previously (Fraccarollo D, Hu K, Galuppo P, Gaudron P, Ertl G. (1997), Circulation. 1997;96:3963-3973) and animals were euthanized. The following parameters were determined: Systolic, diastolic, mean blood pressure; left ventricular ejection fraction; systolic and diastolic left ventricular pressure as well as the velocity of pressure increase and decrease in the left ventricle; cardiac output, cardiac index, heart rate; systemic vascular resistance. All measurements were performed at rest under isofluran anesthesia. Values are expressed as mean±SEM of parameters from different animals. Statistical analysis was performed by one-way analysis of variance (ANOVA) followed by a post hoc Bonferroni test. P values <0.05 were considered statistically significant.

[5] = tested on: uterus (indicator of classical ERα-mediated estrogen action); assay: Uterus fresh weight in ovariectomized SHR; type: in vivo, rat; settings: ovx SHR, daily sc injection for 4 weeks; 30 μg/kg/d (estradiol 2 μg/kg/d); FIG. 1
Source text: as §1, with “euthanized. Uterus fresh weight was measured as an indicator of classical ERα-mediated estrogen action.” for “euthanized.”

[6] = ovx (estradiol-deficient) SHR, 30 μg/kg/d sc for 4 weeks

SMILES | effect on ovx-induced adipose phenotype (body weight) [1] | binding affinity to rat prostate estrogen receptor compared to rat uterus estrogen receptor [2] | cardiac hypertrophy (heart weight) [3] | affinity to human ERβ compared to ERα (human ERβ) | cardiac index [4, 6] | cardiac output [4, 6] | left-ventricular stroke volume ([4]; ovx (estradiol-deficient) SHR, 30 μg/kg/d sc for 4 weeks, FIG. 5) | blood pressure ([4]; 30 μg/kg/d sc for 4 weeks) | effectiveness in lowering blood pressure relative to estradiol and the ERα agonist [4] | stimulation of uterine growth (uterine weight) [5]
C=C[C@@]12CCc3cc(O)ccc3[C@H]1CC[C@@]1(C)[C@H]2CC[C@@H]1O [8β-Vinyl-estra-1,3,5(10)-trien-3,17β-diol] | nor affect the ovx-induced adipose phenotype | higher binding affinity to the rat prostate compared to rat uterus estrogen receptor | significantly inhibited; also recorded: prevent the development of cardiac hypertrophy; also recorded: inhibitory effect on cardiac hyperthrophy as indicated by a reduction in heart weight | higher affinity to human ERβ compared to ERα | augmented | significant improvement of cardiac output; also recorded: increase cardiac output; also recorded: augmented | augmented | significant reduction of systolic as well as diastolic blood pressure; also recorded: lower systolic, mean and diastolic blood pressure; also recorded: lowered blood pressure levels | more effective | did neither cause stimulation of uterine growth
C=C[C@]12CC[C@]3(C)[C@@H](F)[C@H](O)C[C@H]3[C@@H]1CCc1cc(O)ccc12 [17β-Fluor-9α-vinyl-estra-1,3,5(10)-trien-3,16α-diol] |  | higher binding affinity to the rat prostate compared to rat uterus estrogen receptor | significantly inhibited; also recorded: prevent the development of cardiac hypertrophy | higher affinity to human ERβ compared to ERα |  | significant improvement of cardiac output; also recorded: increase cardiac output |  | significant reduction of systolic as well as diastolic blood pressure; also recorded: lower systolic, mean and diastolic blood pressure | more effective | 
